Test results taken from patent US5840303A, “Peptides for inducing cytotoxic T lymphocyte responses to hepatitis B virus” (The Scripps Research Foundation, priority 1995, dated 1998).
Residues, ends and D or L forms follow the SMILES beside them.

Key:
[1] = system: HBV core specific CTL from PBMC of patients with acute hepatitis B; details: patient
[2] = system: autologous target cells pulsed with peptide HBc11-27; assay: Immunodominance of the HBc11-27 CTL epitope in HLA-A2 positive subjects; assay type: cell-based, human; details: one of the four chronic patients
Excerpt: To assess the immunodominance in the HLA-A2 haplotype of the CTL epitope(s) contained in peptide HBc11-27, eight additional subjects with self-limited acute hepatitis B infection, four patients with chronic active hepatitis B, and eight healthy subjects without evidence of previous exposure to HBV (all HLA-A2 positive) were repeatedly tested.
Patient to patient variations in the pattern of response to the peptide were observed during the course of the illness. The cytolytic activity was generally detectable during the icteric phase when transaminase values were high; in some patients the response was long-lasting, being still detectable when GPT levels had already become normal, and in other subjects the lytic activity became undetectable 2 or 3 weeks after the transaminase peak when GPT levels were still slightly altered.

Structure (SMILES) | cytotoxic activity of unstimulated PBMC against autologous B-LCL fed with peptide [1] | cytotoxicity against the relevant peptide sequence [2]
CC(C)C[C@H](NC(=O)[C@@H](NC(=O)[C@H](CO)NC(=O)[C@@H](N)CC(C)C)[C@@H](C)O)C(=O)N1CCC[C@H]1C(=O)N[C@@H](CCC(=O)O)C(=O)N[C@H](C(=O)N[C@H](C(=O)N[C@H](C(=O)N[C@H](C(=O)N[C@@H](CCCNC(=N)N)C(=O)N[C@@H](CCCNC(=N)N)C(=O)N[C@@H](CCCNC(=N)N)C(=O)NCC(=O)N[C@@H](CCCNC(=N)N)C(=O)N[C@@H](CO)C(=O)O)C(C)C)C(C)C)[C@@H](C)O)[C@@H](C)O [140-155] | No cytotoxic activity was observed | –
CC(C)C[C@H](NC(=O)[C@H](CC(C)C)NC(=O)[C@H](CCC(=O)O)NC(=O)[C@@H](NC(=O)[C@@H](NC(=O)[C@H](C)N)[C@@H](C)O)C(C)C)C(=O)N[C@@H](CO)C(=O)N[C@@H](Cc1ccccc1)C(=O)N[C@@H](CC(C)C)C(=O)N1CCC[C@H]1C(=O)N[C@@H](CO)C(=O)N[C@@H](CC(=O)O)C(=O)N[C@@H](Cc1ccccc1)C(=O)N[C@@H](Cc1ccccc1)C(=O)N1CCC[C@H]1C(=O)N[C@@H](CO)C(=O)N[C@H](C(=O)O)C(C)C [HBc11-27] (H-ATVELLSFLPSDFFPSV-OH) | – | detectable, though very low levels of cytotoxicity
